Experimental findings from ChEMBL document CHEMBL1143380, “N-[6-amino-2-(heteroaryl)pyrimidin-4-yl]acetamides as A2A receptor antagonists with improved drug like properties and in vivo efficacy” (J Med Chem, 2009) are described below.

Values after ≈ are worked out from the molar mass of the structure shown.

The target of one series is T1, Adenosine receptor A1 (Homo sapiens, UniProt P30542).
T1 sequence (P30542 whole entry): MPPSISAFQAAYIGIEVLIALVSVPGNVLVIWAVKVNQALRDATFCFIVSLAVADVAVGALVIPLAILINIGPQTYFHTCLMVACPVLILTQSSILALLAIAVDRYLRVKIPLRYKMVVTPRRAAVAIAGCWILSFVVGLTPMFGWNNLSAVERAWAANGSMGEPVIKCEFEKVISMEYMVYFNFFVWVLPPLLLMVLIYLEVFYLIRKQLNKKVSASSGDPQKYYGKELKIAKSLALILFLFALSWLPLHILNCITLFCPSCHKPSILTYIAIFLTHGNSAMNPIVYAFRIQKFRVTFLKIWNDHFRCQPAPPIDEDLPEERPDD
Put plainly: Displacement of [3H]DPCPX from human adenosine A1 receptor expressed in HEK293 cells. Format: cell-based. On the technique in general: Displacement assays read how much labelled ligand stays bound in the presence of the test substance.

The target in series [1] is T2, Adenosine receptor A2a (Homo sapiens, UniProt P29274). The series is described as follows: Displacement of [3H]ZM241385 from human adenosine A2A receptor expressed in HEK293 cells. The series is classed as cell-based.
T2 sequence (P29274 whole entry): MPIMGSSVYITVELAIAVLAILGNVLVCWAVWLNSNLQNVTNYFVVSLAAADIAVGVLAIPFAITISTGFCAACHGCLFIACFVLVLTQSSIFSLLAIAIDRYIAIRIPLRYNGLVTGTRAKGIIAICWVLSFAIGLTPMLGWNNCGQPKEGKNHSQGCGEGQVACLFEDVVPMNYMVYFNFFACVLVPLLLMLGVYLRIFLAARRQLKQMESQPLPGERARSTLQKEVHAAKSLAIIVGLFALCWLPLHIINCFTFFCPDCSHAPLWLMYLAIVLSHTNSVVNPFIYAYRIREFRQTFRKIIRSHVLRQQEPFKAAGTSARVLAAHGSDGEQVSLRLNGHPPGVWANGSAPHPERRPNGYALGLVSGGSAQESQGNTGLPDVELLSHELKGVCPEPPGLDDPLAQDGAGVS
Another series is filed under the species Homo sapiens. The series is described as follows: Selectivity ratio of Ki for human adenosine A1 receptor to Ki for human adenosine A2A receptor.
For series [2], the target named is T2, Adenosine receptor A2a. Put plainly: Antagonist activity at human adenosine A2A receptor assessed as inhibition of CGS-21680-stimulated cAMP production. Format: functional.
Series [3] in a line: Solubility at pH >=2. Format: physicochemical.
Series [4] in a line: Solubility in phosphate buffered saline. The series is classed as physicochemical.
A short description of series [5]: Solubility in phosphate buffer at pH 7.2. The series is classed as physicochemical.

As to `COCCC1CCCCN1c1cc(NC(C)=O)nc(-n2nc(C)cc2C)n1` (single isomer, unassigned), the results for the Ki on Adenosine receptor A1 and on Adenosine receptor A2a [1] were 4690 nM and 275 nM, respectively. For the same compound, in the series filed under Homo sapiens, the Ratio Ki came out at 17.
The like results for `COC[C@H]1C[C@@H](OC)CN1c1cc(NC(C)=O)nc(-n2nc(C)cc2C)n1` were, in that order, 620 nM, 23 nM and 27.
As to `COC(=O)[C@H]1CCCN1c1cc(NC(C)=O)nc(-n2nc(C)cc2C)n1`, the results for the Ki at Adenosine receptor A1 and at Adenosine receptor A2a [1] were 2930 nM and 205 nM, respectively. In addition, the Ratio Ki in the series filed under Homo sapiens came out at 14.
In the same order, the values of `COC[C@H]1C[C@H](OC)CN1c1cc(NC(C)=O)nc(-n2nc(C)cc2C)n1` are 352 nM, 7.5 nM and 47.
In the same order, the values of `COC[C@H]1CCCN1c1cc(NC(=O)CC(C)C)nc(-n2nc(C)cc2C)n1` are 92 nM, 50 nM and 2.
In the same order, the values of `CC(=O)Nc1cc(N2CCOCC2)nc(-n2nc(C)cc2C)n1` are 8120 nM, 313 nM and 26.
In the case of `CC(=O)Nc1cc(N2CCN(C)CC2)nc(-n2nc(C)cc2C)n1`, the Ki on Adenosine receptor A1 was above 10000 nM; at Adenosine receptor A2a [1], 1870 nM.
On to `COC[C@H]1CCCN1c1cc(N)nc(-n2nc(C)cc2C)n1`, for which the Ki amounted to 2470 nM at Adenosine receptor A1 and 261 nM at Adenosine receptor A2a [1]. The Ratio Ki in the series listed under Homo sapiens was determined as 9.5.
Consider `CC(=O)Nc1cc(N2CCC[C@@H]2COc2ccccn2)nc(-n2nc(C)cc2C)n1`, for which the Ki was found to be 64 nM on Adenosine receptor A1 and 40 nM on Adenosine receptor A2a [1]. Also, the Ratio Ki in the series listed under Homo sapiens was 1.5.
The like results for `COC[C@@H]1CCCN1c1cc(NC(C)=O)nc(-c2nccs2)n1` were, in that order, 354 nM, 15 nM and 23.
In the case of `CC(=O)Nc1cc(N2CCCC2=O)nc(-n2nc(C)cc2C)n1`, on Adenosine receptor A2a [2], the half-maximal inhibitory concentration (IC50) was 1000 nM. The Ki worked out at 913 nM at Adenosine receptor A1 and 12 nM at Adenosine receptor A2a [1]. Further, in the series filed under Homo sapiens, the Ratio Ki came to 76.
On to `COC[C@H]1CCCN1c1cc(NC(C)=O)nc(-c2nccs2)n1`, for which the Ki was 150 nM at Adenosine receptor A1 and 20 nM at Adenosine receptor A2a [1]. The Ratio Ki in the series listed under Homo sapiens is 7.5.
For the compound `CCOCC1CCCN1c1cc(NC(C)=O)nc(-n2nc(C)cc2C)n1` (centres undefined), the Ki on Adenosine receptor A1 was found to be 4190 nM; at Adenosine receptor A2a [1], 455 nM. In addition, the Ratio Ki in the series filed under Homo sapiens was determined as 9.
In the same order, the values of `COC[C@@H]1CCCN1c1cc(NC(C)=O)nc(-c2ccc(C)o2)n1` are 215 nM, 119 nM and 2.
The like results for `COC[C@H]1CCCN1c1cc(NC(C)=O)nc(-c2ccccn2)n1` were, in that order, 69 nM, 46 nM and 1.5.
In the same order, the values of `COC[C@H]1CCCN1c1cc(NC(C)=O)nc(-c2cccs2)n1` are 203 nM, 47 nM and 4.3.
Take `CCC(=O)Nc1cc(N2CCC[C@@H]2COC)nc(-n2nc(C)cc2C)n1`: the results for the Ki at Adenosine receptor A1 and at Adenosine receptor A2a [1] were 64 nM and 5.9 nM, respectively. In addition, the Ratio Ki in the series listed under Homo sapiens was found to be 11.
In the same order, the values of `COC[C@@H]1CCCN1c1cc(NC(C)=O)nc(-c2ccccn2)n1` are 125 nM, 50 nM and 2.5.
In the same order, the values of `COC[C@H]1CCCN1c1cc(NC(=O)OC)nc(-n2nc(C)cc2C)n1` are 960 nM, 19 nM and 50.
In the same order, the values of `CC(=O)Nc1cc(N2CCCC2CO)nc(-n2nc(C)cc2C)n1` (single isomer, unassigned) are 1530 nM, 25.8 nM and 59.
For the compound `COc1cncc(-c2cc(NC(C)=O)nc(-n3nc(C)cc3C)n2)c1`, in series [3], the concentration in solution (solubility) came to 10 µg/mL (≈ 29.6 µM). At Adenosine receptor A2a [2], the IC50 was 85 nM. In addition, in the series filed under Homo sapiens, the Ratio Ki worked out at 82.
Regarding `COC[C@@H]1CCCN1c1cc(NC(C)=O)nc(-c2cccs2)n1`, the figures for the Ki at Adenosine receptor A1 and on Adenosine receptor A2a [1] were 325 nM and 27 nM, respectively. Further, the Ratio Ki in the series listed under Homo sapiens came out at 12.
`CCN(CC)c1cc(NC(C)=O)nc(-n2nc(C)cc2C)n1`: the Ki on Adenosine receptor A1 came out at 4470 nM; at Adenosine receptor A2a [1] it was 92 nM. In the series listed under Homo sapiens, the Ratio Ki was 49.
In the same order, the values of `COC[C@@H]1CCC(C)N1c1cc(NC(C)=O)nc(-n2nc(C)cc2C)n1` (some centres undefined) are 1640 nM, 47 nM and 35.
As for `COC[C@H]1CCCN1c1cc(NC(=O)NC(C)C)nc(-n2nc(C)cc2C)n1`, the Ki on Adenosine receptor A1 is 1280 nM; at Adenosine receptor A2a [1] it was 43 nM. The Ratio Ki in the series filed under Homo sapiens worked out at 29.
The like results for `COCC1CCCN1c1cc(NC(C)=O)nc(-n2nc(C)cc2C)n1` (centres undefined) were, in that order, 320 nM, 9 nM and 35.
Take `CC(=O)Nc1cc(N2CCCC2)nc(-n2nc(C)cc2C)n1`: the Ki on Adenosine receptor A1 is 4950 nM; at Adenosine receptor A2a [1], 110 nM. For the same compound, the Ratio Ki in the series filed under Homo sapiens amounted to 45.
The compound `COC[C@H]1CCCN1c1cc(NC(C)=O)nc(-n2nc(C)cc2C)n1.Cl` had a solubility in series [4] above 6700 µg/mL.
For the compound `COC(=O)[C@@H]1CCCN1c1cc(NC(C)=O)nc(-n2nc(C)cc2C)n1`, the Ki at Adenosine receptor A2a [1] was above 10000 nM.
Same read-out and setting: the same measure for `CC(=O)Nc1cc(-c2ccccc2O)nc(-n2nc(C)cc2C)n1`: 1.9 nM.
Take `COC[C@H]1CCCN1c1cc(NC(C)=O)nc(-n2nc(C)cc2C)n1`: the Ratio Ki in the series filed under Homo sapiens was 34.
As for `COC[C@@H]1CCCN1c1cc(NC(C)=O)nc(-n2nc(C)cc2C)n1`, the Ki stood at 4470 nM on Adenosine receptor A1 and 324 nM on Adenosine receptor A2a [1]. Moreover, the Ratio Ki in the series filed under Homo sapiens stood at 14.
The like results for `CC(=O)Nc1cc(N2CCCC2C)nc(-n2nc(C)cc2C)n1` (centres undefined) were, in that order, 1040 nM, 28 nM and 37.
In the same order, the values of `COC[C@H]1CCCN1c1cc(NC(C)=O)nc(-c2ccc(C)o2)n1` are 10.5 nM, 2.7 nM and 4.
Consider `CC(=O)Nc1cc(N2CCc3ccccc3C2)nc(-n2nc(C)cc2C)n1`, for which the Ki stood at 323 nM at Adenosine receptor A1 and 4.2 nM on Adenosine receptor A2a [1]. In addition, in the series listed under Homo sapiens, the Ratio Ki amounted to 77. In series [5], the solubility is 10 µg/mL (≈ 27.6 µM).
Regarding `CC(=O)Nc1cc(N2CCC[C@H]2COc2ccccn2)nc(-n2nc(C)cc2C)n1`, the Ki at Adenosine receptor A1 worked out at 12100 nM; on Adenosine receptor A2a [1], 439 nM. In the series filed under Homo sapiens, the Ratio Ki is 28.
In the same order, the values of `CC(=O)Nc1cc(N2CCCCC2)nc(-n2nc(C)cc2C)n1` are 3360 nM, 78 nM and 43.

By Ki is commonly meant a dissociation constant, usually derived from enzyme kinetics or from competition with a known ligand. The low end stands for higher affinity, the high end for lower affinity. As a reminder, the IC50 is the concentration at which inhibition is half-maximal. The solubility is the concentration that dissolves in the medium under given conditions. A high value points to a readily soluble substance.
